Reference: patent US20230257396A1, “MACROCYCLES AND THEIR USE” (BLOSSOMHILL THERAPEUTICS, INC., priority 2020, published 2023)

Columns and labels:
Experiment in all cases: KINOMEscan kinase binding assay (Eurofins/DiscoveRx), % Ctrl
kinases [1] = target: T1, kinases (Homo sapiens, UniProt P07949, M918T); conditions: 1 μM; RET(M918T)
T1 construct: purchased Eurofins/DiscoveRx; host or cells: E. coli BL21-derived host (T7 phage display) for most kinases; HEK-293 for the rest
Summary of the method: (§1)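 Read-out is qPCR of kinase eluted from ligand-coated streptavidin beads after 1 h room-temperature competition with test compound. Values are % Ctrl at the tested concentration, lower meaning tighter binding.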

kinases [2] = target: T2, kinases (Homo sapiens, UniProt P00519, H396P); conditions: 1 μM
T2 construct: purchased Eurofins/DiscoveRx; host or cells: E. coli BL21-derived host (T7 phage display) for most kinases; HEK-293 for the rest
Summary of the method: as §1

kinases [3] = target: T3, kinases (Homo sapiens, UniProt P10721, V559D/V654A); conditions: 1 μM; KIT(V559D, V654A)
T3 construct: purchased Eurofins/DiscoveRx; host or cells: E. coli BL21-derived host (T7 phage display) for most kinases; HEK-293 for the rest
Summary of the method: as §1

kinases [4] = target: T4, kinases (Homo sapiens, UniProt P00533, L858R/T790M); conditions: 1 μM; EGFR(L858R, T790M)
T4 construct: purchased Eurofins/DiscoveRx; host or cells: E. coli BL21-derived host (T7 phage display) for most kinases; HEK-293 for the rest
Summary of the method: as §1

kinases [5] = target: T5, kinases (Homo sapiens, UniProt P00533, L861Q); conditions: 1 μM; EGFR(L861Q)
T5 construct: purchased Eurofins/DiscoveRx; host or cells: E. coli BL21-derived host (T7 phage display) for most kinases; HEK-293 for the rest
Summary of the method: as §1

kinases [6] = target: T6, kinases (Homo sapiens, UniProt P10721, L576P); conditions: 1 μM; KIT(L576P)
T6 construct: purchased Eurofins/DiscoveRx; host or cells: E. coli BL21-derived host (T7 phage display) for most kinases; HEK-293 for the rest
Summary of the method: as §1

kinases [7] = target: T7, kinases (Homo sapiens, UniProt P07949, V804L); conditions: 1 μM; RET(V804L)
T7 construct: purchased Eurofins/DiscoveRx; host or cells: E. coli BL21-derived host (T7 phage display) for most kinases; HEK-293 for the rest
Summary of the method: as §1

kinases [8] = target: T8, kinases (Homo sapiens, UniProt P00519); conditions: 1 μM
T8 construct: purchased Eurofins/DiscoveRx; host or cells: E. coli BL21-derived host (T7 phage display) for most kinases; HEK-293 for the rest
Summary of the method: as §1

kinases [9] = target: T9, kinases (Homo sapiens, UniProt P00533, L858R); conditions: 1 μM; EGFR(L858R)
T9 construct: purchased Eurofins/DiscoveRx; host or cells: E. coli BL21-derived host (T7 phage display) for most kinases; HEK-293 for the rest
Summary of the method: as §1

kinases [10] = target: T10, kinases (Homo sapiens, UniProt P00519, Y253F); conditions: 1 μM; ABL1(Y253F)-phosphorylated
T10 construct: purchased Eurofins/DiscoveRx; host or cells: E. coli BL21-derived host (T7 phage display) for most kinases; HEK-293 for the rest
Summary of the method: as §1

kinases [11] = target: T11, kinases (Homo sapiens, UniProt P00519, F317I); conditions: 1 μM
T11 construct: purchased Eurofins/DiscoveRx; host or cells: E. coli BL21-derived host (T7 phage display) for most kinases; HEK-293 for the rest
Summary of the method: as §1

kinases [12] = target: T12, kinases (Homo sapiens, UniProt P35916); conditions: 1 μM; FLT4
T12 construct: purchased Eurofins/DiscoveRx; host or cells: E. coli BL21-derived host (T7 phage display) for most kinases; HEK-293 for the rest
Summary of the method: as §1

kinases [13] = target: T13, kinases (Homo sapiens, UniProt P09619); conditions: 1 μM; PDGFRB
T13 construct: purchased Eurofins/DiscoveRx; host or cells: E. coli BL21-derived host (T7 phage display) for most kinases; HEK-293 for the rest
Summary of the method: as §1

kinases [14] = target: T14, kinases (Homo sapiens, UniProt P00533); conditions: 1 μM; EGFR
T14 construct: purchased Eurofins/DiscoveRx; host or cells: E. coli BL21-derived host (T7 phage display) for most kinases; HEK-293 for the rest
Summary of the method: as §1

kinases [15] = target: T15, kinases (Homo sapiens, UniProt P36888); conditions: 1 μM
T15 construct: purchased Eurofins/DiscoveRx; host or cells: E. coli BL21-derived host (T7 phage display) for most kinases; HEK-293 for the rest
T15 sequence (P36888 27-993): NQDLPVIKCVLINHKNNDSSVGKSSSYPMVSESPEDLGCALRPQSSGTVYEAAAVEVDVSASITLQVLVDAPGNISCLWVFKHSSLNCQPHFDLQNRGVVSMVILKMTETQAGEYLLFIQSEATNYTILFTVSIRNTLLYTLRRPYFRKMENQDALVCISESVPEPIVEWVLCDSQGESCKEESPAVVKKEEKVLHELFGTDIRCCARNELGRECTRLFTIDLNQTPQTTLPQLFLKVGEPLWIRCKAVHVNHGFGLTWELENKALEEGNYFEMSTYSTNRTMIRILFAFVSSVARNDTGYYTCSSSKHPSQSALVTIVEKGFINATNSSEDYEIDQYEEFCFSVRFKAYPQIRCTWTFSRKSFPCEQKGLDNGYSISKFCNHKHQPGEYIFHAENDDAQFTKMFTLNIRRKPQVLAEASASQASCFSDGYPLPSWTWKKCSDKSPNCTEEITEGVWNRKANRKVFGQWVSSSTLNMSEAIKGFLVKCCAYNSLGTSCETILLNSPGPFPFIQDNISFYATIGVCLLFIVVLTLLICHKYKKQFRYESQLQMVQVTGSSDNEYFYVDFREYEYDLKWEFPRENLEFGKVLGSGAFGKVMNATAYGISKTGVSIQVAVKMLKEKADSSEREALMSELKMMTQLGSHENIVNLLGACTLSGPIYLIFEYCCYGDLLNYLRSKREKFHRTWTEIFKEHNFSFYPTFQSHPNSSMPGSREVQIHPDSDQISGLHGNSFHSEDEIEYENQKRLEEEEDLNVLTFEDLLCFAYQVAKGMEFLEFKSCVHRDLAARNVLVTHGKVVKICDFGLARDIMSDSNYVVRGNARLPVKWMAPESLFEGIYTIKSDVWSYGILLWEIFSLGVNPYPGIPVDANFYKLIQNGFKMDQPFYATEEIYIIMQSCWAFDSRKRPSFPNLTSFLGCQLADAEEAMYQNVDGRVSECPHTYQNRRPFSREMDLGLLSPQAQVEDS
Summary of the method: as §1

T12 sequence (P35916 25-1363): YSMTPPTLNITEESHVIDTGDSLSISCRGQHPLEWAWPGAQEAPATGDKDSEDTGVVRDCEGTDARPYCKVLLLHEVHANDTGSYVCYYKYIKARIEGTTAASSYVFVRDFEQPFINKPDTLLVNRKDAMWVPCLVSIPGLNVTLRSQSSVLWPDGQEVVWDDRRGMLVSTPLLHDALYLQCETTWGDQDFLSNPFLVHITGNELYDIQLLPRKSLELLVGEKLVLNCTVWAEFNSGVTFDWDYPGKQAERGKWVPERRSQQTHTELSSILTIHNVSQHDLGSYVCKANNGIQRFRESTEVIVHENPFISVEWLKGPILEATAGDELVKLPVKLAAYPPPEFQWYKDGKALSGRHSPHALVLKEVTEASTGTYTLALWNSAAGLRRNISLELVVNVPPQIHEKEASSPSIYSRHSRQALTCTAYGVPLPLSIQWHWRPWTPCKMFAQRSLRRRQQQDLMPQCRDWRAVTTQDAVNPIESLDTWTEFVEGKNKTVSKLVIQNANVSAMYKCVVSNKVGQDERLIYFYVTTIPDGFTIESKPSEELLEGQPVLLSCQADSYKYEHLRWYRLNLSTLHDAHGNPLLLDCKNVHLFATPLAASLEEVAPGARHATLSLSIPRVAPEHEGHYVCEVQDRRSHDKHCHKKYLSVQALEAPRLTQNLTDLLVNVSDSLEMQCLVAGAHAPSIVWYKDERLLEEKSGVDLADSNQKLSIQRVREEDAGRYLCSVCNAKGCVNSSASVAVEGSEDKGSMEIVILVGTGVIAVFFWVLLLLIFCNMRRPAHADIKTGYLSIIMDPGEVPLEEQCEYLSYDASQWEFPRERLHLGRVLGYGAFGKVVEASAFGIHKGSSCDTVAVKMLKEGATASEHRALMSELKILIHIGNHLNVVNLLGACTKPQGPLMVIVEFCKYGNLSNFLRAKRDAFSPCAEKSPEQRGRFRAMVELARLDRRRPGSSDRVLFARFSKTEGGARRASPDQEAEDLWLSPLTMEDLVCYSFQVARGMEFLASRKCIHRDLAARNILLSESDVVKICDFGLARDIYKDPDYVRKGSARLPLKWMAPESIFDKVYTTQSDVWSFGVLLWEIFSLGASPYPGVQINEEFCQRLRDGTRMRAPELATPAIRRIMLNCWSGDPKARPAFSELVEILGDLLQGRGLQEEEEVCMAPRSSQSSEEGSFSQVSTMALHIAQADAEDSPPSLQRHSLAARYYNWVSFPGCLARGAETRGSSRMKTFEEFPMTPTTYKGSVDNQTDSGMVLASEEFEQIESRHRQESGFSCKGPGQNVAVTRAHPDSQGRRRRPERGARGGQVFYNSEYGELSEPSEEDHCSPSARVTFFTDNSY
T3 sequence (P10721 26-976 V559D/V654A): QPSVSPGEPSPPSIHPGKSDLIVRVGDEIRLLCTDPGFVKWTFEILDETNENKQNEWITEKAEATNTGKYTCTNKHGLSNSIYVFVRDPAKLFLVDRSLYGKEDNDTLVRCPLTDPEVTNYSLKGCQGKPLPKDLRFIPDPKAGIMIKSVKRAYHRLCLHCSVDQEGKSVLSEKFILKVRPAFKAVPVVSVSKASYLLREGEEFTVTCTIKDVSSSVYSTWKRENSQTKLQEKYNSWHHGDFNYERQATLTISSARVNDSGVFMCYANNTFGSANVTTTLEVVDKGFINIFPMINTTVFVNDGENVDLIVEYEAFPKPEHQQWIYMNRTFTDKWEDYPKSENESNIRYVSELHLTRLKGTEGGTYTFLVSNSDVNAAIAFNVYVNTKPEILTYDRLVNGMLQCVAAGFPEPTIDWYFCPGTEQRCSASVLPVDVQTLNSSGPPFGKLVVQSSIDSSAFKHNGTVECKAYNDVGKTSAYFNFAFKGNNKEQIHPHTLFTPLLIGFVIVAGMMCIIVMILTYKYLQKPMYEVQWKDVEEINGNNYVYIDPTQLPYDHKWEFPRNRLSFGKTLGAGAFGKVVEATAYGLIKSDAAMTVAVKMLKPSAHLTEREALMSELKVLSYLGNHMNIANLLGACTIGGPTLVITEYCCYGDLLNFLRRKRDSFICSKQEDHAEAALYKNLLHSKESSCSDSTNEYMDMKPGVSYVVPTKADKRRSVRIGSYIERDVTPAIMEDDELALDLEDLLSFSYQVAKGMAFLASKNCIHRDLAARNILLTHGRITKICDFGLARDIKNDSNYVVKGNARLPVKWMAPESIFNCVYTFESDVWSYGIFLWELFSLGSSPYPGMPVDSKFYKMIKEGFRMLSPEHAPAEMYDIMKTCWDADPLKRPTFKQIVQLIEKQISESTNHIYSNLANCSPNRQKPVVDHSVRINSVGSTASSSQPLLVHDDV
T1 sequence (P07949 29-1114 M918T): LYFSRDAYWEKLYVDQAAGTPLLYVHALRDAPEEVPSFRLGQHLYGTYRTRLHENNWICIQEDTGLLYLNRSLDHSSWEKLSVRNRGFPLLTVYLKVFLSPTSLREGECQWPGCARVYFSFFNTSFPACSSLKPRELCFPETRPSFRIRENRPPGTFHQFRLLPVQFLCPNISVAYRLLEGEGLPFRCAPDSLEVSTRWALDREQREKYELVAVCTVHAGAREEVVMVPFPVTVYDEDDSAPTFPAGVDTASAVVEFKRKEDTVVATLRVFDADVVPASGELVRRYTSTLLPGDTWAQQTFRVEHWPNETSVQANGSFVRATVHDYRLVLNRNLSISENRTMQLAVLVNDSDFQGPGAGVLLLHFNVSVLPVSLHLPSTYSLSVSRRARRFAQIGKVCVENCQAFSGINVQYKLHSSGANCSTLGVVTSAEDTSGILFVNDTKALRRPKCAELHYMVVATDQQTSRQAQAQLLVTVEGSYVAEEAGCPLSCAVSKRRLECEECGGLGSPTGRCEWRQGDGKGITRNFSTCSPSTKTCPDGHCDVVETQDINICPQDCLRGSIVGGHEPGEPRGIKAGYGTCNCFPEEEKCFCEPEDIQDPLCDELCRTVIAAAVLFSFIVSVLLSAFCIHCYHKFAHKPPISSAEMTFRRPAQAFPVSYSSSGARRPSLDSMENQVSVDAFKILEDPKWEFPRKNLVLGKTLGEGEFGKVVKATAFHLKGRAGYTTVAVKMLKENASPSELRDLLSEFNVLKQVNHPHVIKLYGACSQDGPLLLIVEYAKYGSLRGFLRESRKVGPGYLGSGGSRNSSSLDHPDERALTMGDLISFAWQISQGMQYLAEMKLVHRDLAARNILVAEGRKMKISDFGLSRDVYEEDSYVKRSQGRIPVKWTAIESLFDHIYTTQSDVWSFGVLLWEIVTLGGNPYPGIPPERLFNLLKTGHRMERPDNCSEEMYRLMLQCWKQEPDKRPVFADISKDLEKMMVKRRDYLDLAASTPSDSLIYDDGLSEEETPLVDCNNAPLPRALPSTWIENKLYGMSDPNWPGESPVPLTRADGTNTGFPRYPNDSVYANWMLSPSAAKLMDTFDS
T6 sequence (P10721 26-976 L576P): as the sequence (P10721 26-976 V559D/V654A) above, with D534V, L551P, A629V counted along it
T13 sequence (P09619 33-1106): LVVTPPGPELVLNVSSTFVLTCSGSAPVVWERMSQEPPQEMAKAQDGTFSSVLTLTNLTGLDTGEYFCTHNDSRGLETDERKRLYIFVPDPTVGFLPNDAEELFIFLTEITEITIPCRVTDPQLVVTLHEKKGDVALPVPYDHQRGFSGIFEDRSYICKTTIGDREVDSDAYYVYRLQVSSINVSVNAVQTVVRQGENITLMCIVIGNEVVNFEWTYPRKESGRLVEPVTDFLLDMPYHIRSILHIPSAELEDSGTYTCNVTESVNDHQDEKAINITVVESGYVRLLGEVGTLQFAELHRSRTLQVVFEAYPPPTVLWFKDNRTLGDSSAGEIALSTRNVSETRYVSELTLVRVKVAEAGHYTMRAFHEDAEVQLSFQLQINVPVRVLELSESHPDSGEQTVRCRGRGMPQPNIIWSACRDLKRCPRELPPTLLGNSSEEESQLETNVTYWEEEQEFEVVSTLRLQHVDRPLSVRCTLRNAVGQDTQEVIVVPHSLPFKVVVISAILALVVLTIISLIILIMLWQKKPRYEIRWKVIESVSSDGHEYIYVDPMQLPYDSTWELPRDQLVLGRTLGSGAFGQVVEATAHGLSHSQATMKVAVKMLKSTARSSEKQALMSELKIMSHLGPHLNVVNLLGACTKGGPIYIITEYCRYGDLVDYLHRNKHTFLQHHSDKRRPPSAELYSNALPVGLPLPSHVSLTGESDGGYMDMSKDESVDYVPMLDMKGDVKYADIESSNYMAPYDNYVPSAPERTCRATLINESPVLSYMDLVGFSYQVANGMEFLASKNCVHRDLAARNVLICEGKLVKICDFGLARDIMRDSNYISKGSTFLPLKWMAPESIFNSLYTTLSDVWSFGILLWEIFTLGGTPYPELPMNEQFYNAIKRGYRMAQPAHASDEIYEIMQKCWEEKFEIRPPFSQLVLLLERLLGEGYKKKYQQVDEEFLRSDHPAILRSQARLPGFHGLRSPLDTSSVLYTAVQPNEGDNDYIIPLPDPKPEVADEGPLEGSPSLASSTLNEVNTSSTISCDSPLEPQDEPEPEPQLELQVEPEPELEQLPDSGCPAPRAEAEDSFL
T7 sequence (P07949 29-1114 V804L): as the sequence (P07949 29-1114 M918T) above, with V776L, T890M counted along it

| % Ctrl, RET(M918T) (kinases [1]) [% Ctrl] | % Ctrl, ABL1(H396P)-nonphosphorylated (kinases [2]) [% Ctrl] | % Ctrl, ABL1(H396P)-phosphorylated (kinases [2]) [% Ctrl] | % Ctrl, KIT(V559D, V654A) (kinases [3]) [% Ctrl] | % Ctrl, EGFR(L858R, T790M) (kinases [4]) [% Ctrl] | % Ctrl, EGFR(L861Q) (kinases [5]) [% Ctrl] | % Ctrl, KIT(L576P) (kinases [6]) [% Ctrl] | % Ctrl, RET(V804L) (kinases [7]) [% Ctrl] | % Ctrl, ABL1-nonphosphorylated (kinases [8]) [% Ctrl] | % Ctrl, ABL1-phosphorylated (kinases [8]) [% Ctrl] | % Ctrl, EGFR(L858R) (kinases [9]) [% Ctrl] | % Ctrl, ABL1(Y253F)-phosphorylated (kinases [10]) [% Ctrl] | % Ctrl, ABL1(F317I)-nonphosphorylated (kinases [11]) [% Ctrl] | % Ctrl, ABL1(F317I)-phosphorylated (kinases [11]) [% Ctrl] | % Ctrl, FLT4 (kinases [12]) [% Ctrl] | % Ctrl, PDGFRB (kinases [13]) [% Ctrl] | % Ctrl, EGFR (kinases [14]) [% Ctrl] | % Ctrl, FLT3 (kinases [15]) [% Ctrl] | % Ctrl, FLT3-autoinhibited (kinases [15]) [% Ctrl] | SMILES |
| --- | --- | --- | --- | --- | --- | --- | --- | --- | --- | --- | --- | --- | --- | --- | --- | --- | --- | --- | --- |
| 7 | 0.55 | 15 | 8 | 58 | 66 | 14 | 3.8 | 0.75 | 15 | 100 | 7.8 | 20 | 39 | 9.9 | 55 | 99 | 11 | 38 | Cc1cc2c([nH]1)/C=C1\C(=O)Nc3ccc(cc31)OCCOCCN(C)C2=O [Ex.91, [16a(17)Z]-2,5-dimethyl-6,7,9,10-tetrahydro-1H-12,14-(ethanediylidene)dipyrrolo[3,2-i:3′,4′-l][1,4,7]dioxazacyclopentadecine-4,16(5H,15H)-dione] |
| 0 | 0 | 0.1 | 6.7 | 1.2 | 77 | 5.9 | 0 | 0 | 0 | 48 | 0 | 0 | 0.75 | 0.11 | 0.4 | 61 | 0.45 | 0.15 | Cc1cc2c([nH]1)/C=C1\C(=O)Nc3ccc(cc31)-c1cnn(C)c1CNCCN(C)C2=O [Ex. 125, [3a(4)Z]-6,9,14-trimethyl-9,10,11,12,13,14-hexahydro-1,17-(ethanediylidene)pyrazolo[4,3-m]dipyrrolo[3,2-f:3′,4′-i][1,4]diazacyclopentadecine-3,8(2H,5H)-dione] |
| 0 | 0 | 0 | 12 | 35 | 78 | 0 | 0 | 0 | 0 | 56 | 0 | 0 | 3.5 | 0 | 1.4 | 52 | 0.6 | 5.1 | Cc1cc2c([nH]1)/C=C1\C(=O)Nc3cc(Cl)c(cc31)OCCOCCN(C)C2=O [Ex. 131, [16a(17)Z]-19-chloro-2,5-dimethyl-6,7,9,10-tetrahydro-1H-12,14-(ethanediylidene)dipyrrolo[3,2-i:3′,4′-l][1,4,7]dioxazacyclopentadecine-4,16(5H,15H)-dione] |
